Key:
rotavirus = details: pediatric patients; 3 day course; 7.5 mg/kg suspension; cited from earlier work
[1] = system: rotavirus infection in MA-104 cells; details: cited from earlier work
AGS cells [2] = assay: Proliferation assay (ALAMARBLUE) of egg and/or colostrum, Example 8A; assay type: cell-based, human
Experimental: Cell proliferation assays were performed as previously described, utilising ALAMARBLUETM (Invitrogen, Paisley, UK), (Marchbank et al., Am J Physiol Gastrointest Liver Physiol. 2009; 296:[…]-703) as per manufacturer's instructions. Briefly, cells were seeded at 2000 cells/well, grown in medium and 10% FCS in 96 well plates overnight. The following day, cells were washed with medium alone and incubated in medium alone (negative control), medium containing epidermal growth factor (EGF, 1 μg/ml, positive control) or egg and colostrum combination. BSA was added to additional wells as a further negative control. Data are expressed as % positive control where the rise in proliferation (increase in A570 above baseline) caused by […] of EGF was defined as 100%. Whole powdered egg and colostrum (0.25-4 mg/ml) was added to cells and effect on proliferation and cell migration analysed. Additional studies compared “pure” yolk and egg white powder (1 mg powder/ml) along with separated yolk and white from fresh eggs (added at same protein concentration as equivalent powder) and also compared uncooked egg powder and whole fresh egg that had been heated to 100° C. for 8 minutes (samples placed in 50 ml falcon tube in waterbath, followed by homogenisation) prior to addition to cells. […] This 40:60 proportion was used to reproduce the product currently commercially available and used in trials of infectious diarrhoea. Gaensbauer et al. BMJ Glob Health. 2017; 2:e000452. The importance of the EGFR and TGFβ in mediating proliferative and migratory effects was examined by adding whole egg powder (1 mg/ml, w/v) to cells in the presence and absence of tyrphostin (100 nM) and a TGFβ ([…]) neutralising antibody (antibodies-online.com, Aachen, Germany). Additional samples examined the effect of pure ovomucoid (25-100 μg/ml) and ovalbumin (50-400 μg/ml) on proliferation and migration. To further examine the contribution of ovomucoid and ovalbumin in mediating the proliferative and migratory activity seen using whole egg powder, further wells had egg powder added (1 mg/ml) in the presence of anti-ovomucoid and ovalbumin antibodies (Generon, Slough, Berkshire, UK) at 1 μg/ml.

AGS cells [3] = assay: Cell migration assay (wounded monolayers) of egg and/or colostrum, Example 8A; assay type: cell-based, human; details: purified protein
Experimental: Cell migration assays were performed using our previously published methods. Marchbank et al., Am J Physiol Gastrointest Liver Physiol. 2009; 296:[…]-703. Briefly, confluent monolayers had standard wounds inflicted and serial photomicrographs taken. Twenty measurements per field were performed by placing a transparent grid over the photograph and measuring the distance moved from the original wound line. All results are expressed as mean (SEM) of four separate experiments. Whole powdered egg and colostrum (0.25-4 mg/ml) was added to cells and effect on proliferation and cell migration analysed. Additional studies compared “pure” yolk and egg white powder (1 mg powder/ml) along with separated yolk and white from fresh eggs (added at same protein concentration as equivalent powder) and also compared uncooked egg powder and whole fresh egg that had been heated to 100° C. for 8 minutes (samples placed in 50 ml falcon tube in waterbath, followed by homogenisation) prior to addition to cells. […] This 40:60 proportion was used to reproduce the product currently commercially available and used in trials of infectious diarrhoea. Gaensbauer et al. BMJ Glob Health. 2017; 2:e000452. […]

these cell lines = details: cited from earlier work
RIE cells = assay: Cell proliferation assay in RIE cells; assay type: cell-based, rat; details: vs SFM, standard colostrum or ZnC
Experimental: Human gastrointestinal cells (AGS cells) or rat intestinal epithelial cells (RIE cells) are seeded at 2000 cells/well in an appropriate growth medium containing glutamine and 10% foetal calf serum in 96 well plates overnight. The following day, cells are washed twice with serum-free medium and then incubated in serum-free medium alone (SFM negative control) or also containing colostrum at various concentrations or epidermal growth factor (EGF, positive control) overnight. The following day ALAMARBLUE™ is added to each well. ALAMARBLUE™ is a coloured substrate that changes colour from blue to pink in response to cellular metabolic reduction. This change can be determined by reading the absorbance of the wells at 570 nm using a spectrophotometer at 0 h when the substrate is added and 4 hours later.

CC(=O)Oc1ccccc1C(=O)Nc1ncc([N+](=O)[O-])s1 [Nitazoxanide]
duration of rotavirus disease (rotavirus): effective to reduce the duration of rotavirus disease

O=c1cc(-c2ccc(O)cc2)oc2cc(O[C@@H]3O[C@H](CO)[C@@H](O)[C@H](O)[C@H]3O)cc(O)c12 [apigenin 7-O-glucoside]
antiviral activity against rotavirus infection [1]: antiviral activity

O=c1cc(-c2ccc(O)c(O)c2)oc2cc(O)cc(O)c12 [luteolin]
antiviral activity against rotavirus infection [1]: antiviral activity

ovalbumin: purified ovalbumin, 42 kDa egg white protein
effect on proliferation and migration (AGS cells [2]; pure isolated ovalbumin at 400 µg/mL): major stimulatory effect
cell proliferation dose-response, in words (AGS cells [2]; purified protein, 50-400 μg/ml): increasing activity up to the highest dose
cell migration dose-response, in words (AGS cells [3]; 50-400 μg/ml): increasing activity up to the highest dose

soya bean trypsin inhibitor
proliferation or migration (these cell lines): does not increase proliferation or migration

zinc carnosine
cell proliferation (A570 nm), comparison in words (RIE cells): stimulate cell proliferation

B1: ovomucoid: purified ovomucoid, 28 kDa egg white protein with trypsin inhibitor activity (protein, UniProt P01005 25-210, looked up)
Ovomucoid: AEVDCSRFPNATDKEGKDVLVCNKDLRPICGTDGVTYTNDCLLCAYSIEFGTNISKEHDGECKETVPMNCSSYANTTSEDGKVMVLCNRAFNPVCGTDGVTYDNECLLCAHKVEQGASVDKRHDGGCRKELAAVSVDCSEYPKPDCTAEDRPLCGSDNKTYGNKCNFCNAVVESNGTLTLSHFGKC
share of total proliferative and migratory activity of whole egg (AGS cells [2]; from neutralising antibody studies): about 80%
concentration of peak effect, cell proliferation (AGS cells [2]; purified protein, dose-response 25-100 μg/ml): 50 µg/mL
concentration of peak effect, cell migration (AGS cells [3]; dose-response 25-100 μg/ml): 50 µg/mL
